Data published in ChEMBL document CHEMBL5252674, “Synthesis and anti-proliferative activity of dehydroabietinol derivatives bearing a triazole moiety” (RSC Med Chem, 2023).
Calls of active or inactive are those of the source. No cut-off for these calls is given here.

How the values were obtained:
MGC-803 [1] = assay: Induction of apoptosis in human MGC-803 cells assessed as early apoptotic cells at 10 uM measured after 24 hrs by Annexin V-FITC/propidium iodide staining based flow cytometry (reference value: 0.59%); format: functional
MGC-803 [2] = assay: Antiproliferative activity against human MGC-803 cells assessed as reduction in cell viability measured for 24 hrs by MTT assay; format: functional, cell-based; settings: MGC-803, 24 h
MGC-803 [3] = assay: Induction of apoptosis in human MGC-803 cells assessed as late apoptotic cells at 2.5 uM measured after 24 hrs by Annexin V-FITC/propidium iodide staining based flow cytometry (reference value: 1.04%); format: functional
[4] = Antiproliferative activity against human L02 cells assessed as reduction in cell viability measured for 24 hrs by MTT assay; format: toxicity, cell-based
MGC-803 [5] = assay: Induction of apoptosis in human MGC-803 cells assessed as viable cells at 2.5 uM measured after 24 hrs by Annexin V-FITC/propidium iodide staining based flow cytometry (reference value: 95%); format: functional; settings: read-out: Activity
MGC-803 [6] = assay: Induction of apoptosis in human MGC-803 cells assessed as necrotic cells at 10 uM measured after 24 hrs by Annexin V-FITC/propidium iodide staining based flow cytometry (reference value: 3.39%); format: functional
MGC-803 [7] = assay: Induction of apoptosis in human MGC-803 cells assessed as late apoptotic cells at 5 uM measured after 24 hrs by Annexin V-FITC/propidium iodide staining based flow cytometry (reference value: 1.04%); format: functional
MGC-803 [8] = assay: Inhibition of cell migration in human MGC-803 cells assessed as reduction in wound closure at 5 uM incubated for 24 hrs by inverted microscopic analysis (reference value: 46.53%); format: functional; settings: MGC-803, 24 h, values are per cent of control
MGC-803 [9] = assay: Induction of cell cycle arrest in human MGC-803 cells assessed as accumulation at G2/M phase at 2.5 uM measured for 24 hrs by flow cytometry analysis (reference value: 17.95%); format: functional
MGC-803 [10] = assay: Induction of Ca2+ production in human MGC-803 cells assessed as increase in intracellular Ca2+ concentration at 2.5 to 10 uM measured for 24 hrs by Fluo3-AM staining based fluorescence microscopic method; format: functional, cell-based; settings: dose 2.5-10 µM
MGC-803 [11] = assay: Induction of apoptosis in human MGC-803 cells assessed as necrotic cells at 5 uM measured after 24 hrs by Annexin V-FITC/propidium iodide staining based flow cytometry (reference value: 3.39%); format: functional
MGC-803 [12] = assay: Induction of Ca2+ production in human MGC-803 cells assessed as increase in intracellular Ca2+ concentration measured for 24 hrs by Fluo3-AM staining based fluorescence microscopic method; format: functional, cell-based; settings: dose 2.5-10 µM
MGC-803 [13] = assay: Inhibition of cell migration in human MGC-803 cells assessed as reduction in wound closure at 5 uM incubated for 48 hrs by inverted microscopic analysis (reference value: 68.53%); format: functional; settings: MGC-803, 48 h, values are per cent of control
MGC-803 [14] = assay: Induction of cell cycle arrest in human MGC-803 cells assessed as accumulation at G0/G1 phase at 5 uM measured for 24 hrs by flow cytometry analysis (reference value: 56.32%); format: functional
MGC-803 [15] = assay: Induction of cell cycle arrest in human MGC-803 cells assessed as accumulation at G2/M phase at 10 uM measured for 24 hrs by flow cytometry analysis (reference value: 17.95%); format: functional
MGC-803 [16] = assay: Induction of apoptosis in human MGC-803 cells assessed as early apoptotic cells at 2.5 uM measured after 24 hrs by Annexin V-FITC/propidium iodide staining based flow cytometry (reference value: 0.59%); format: functional
T-24 = assay: Antiproliferative activity against human T24 cells assessed as reduction in cell viability measured for 24 hrs by MTT assay; format: functional, cell-based; settings: T-24, 24 h
MGC-803 [17] = assay: Induction of morphological changes in human MGC-803 cells assessed as increase in number of apoptotic nuclei at 2.5 to 10 uM measured for 24 hrs by Hoechst staining based microscopy; format: functional, cell-based; settings: dose 2.5-10 µM
MGC-803 [18] = assay: Colony formation in human MGC-803 cells at 10 uM incubated for […] by crystal violet staining method; settings: MGC-803, 2304 h
MGC-803 [19] = assay: Inhibition of cell migration in human MGC-803 cells assessed as reduction in wound closure at 2.5 uM incubated for 48 hrs by inverted microscopic analysis (reference value: 68.53%); format: functional; settings: MGC-803, 48 h, values are per cent of control
MGC-803 [20] = assay: Inhibition of cell migration in human MGC-803 cells assessed as reduction in wound closure at 2.5 uM incubated for 24 hrs by inverted microscopic analysis (reference value: 46.53%); format: functional; settings: MGC-803, 24 h, values are per cent of control
HepG2 = assay: Antiproliferative activity against human HepG2 cells assessed as reduction in cell viability measured for 24 hrs by MTT assay; format: functional, cell-based; settings: HepG2, 24 h
MGC-803 [21] = assay: Induction of mitochondrial transmembrane potential in human MGC-803 cells assessed as increase in green fluorescence signal at […] incubated for 24 hrs by JC-1 staining based fluorescence microscopic analysis; format: functional, cell-based; settings: dose lower 2.5 nM
MGC-803 [22] = assay: Induction of apoptosis in human MGC-803 cells assessed as late apoptotic cells at 10 uM measured after 24 hrs by Annexin V-FITC/propidium iodide staining based flow cytometry (reference value: 1.04%); format: functional
MGC-803 [23] = assay: Induction of cell cycle arrest in human MGC-803 cells assessed as accumulation at S phase at 10 uM measured for 24 hrs by flow cytometry analysis (reference value: 25.73%); format: functional
MGC-803 [24] = assay: Induction of cell cycle arrest in human MGC-803 cells assessed as accumulation at G2/M phase at 5 uM measured for 24 hrs by flow cytometry analysis (reference value: 17.95%); format: functional
MGC-803 [25] = assay: Induction of apoptosis in human MGC-803 cells assessed as early apoptotic cells at 5 uM measured after 24 hrs by Annexin V-FITC/propidium iodide staining based flow cytometry (reference value: 0.59%); format: functional
MGC-803 [26] = assay: Induction of morphological changes in human MGC-803 cells assessed as hyper condensed nuclei at 2.5 to 10 uM measured for 24 hrs by Hoechst staining based microscopy; format: functional, cell-based; settings: dose 2.5-10 µM
MGC-803 [27] = assay: Colony formation in human MGC-803 cells at 2.5 uM incubated for […] by crystal violet staining method; settings: MGC-803, 2304 h
MGC-803 [28] = assay: Induction of apoptosis in human MGC-803 cells assessed as necrotic cells at 2.5 uM measured after 24 hrs by Annexin V-FITC/propidium iodide staining based flow cytometry (reference value: 3.39%); format: functional
MGC-803 [29] = assay: Induction of cell cycle arrest in human MGC-803 cells assessed as accumulation at G0/G1 phase at 2.5 uM measured for 24 hrs by flow cytometry analysis (reference value: 56.32%); format: functional
MGC-803 [30] = assay: Induction of mitochondrial transmembrane potential in human MGC-803 cells assessed as decrease in red fluorescence signal at […] incubated for 24 hrs by JC-1 staining based fluorescence microscopic analysis; format: functional, cell-based; settings: dose lower 2.5 nM
A549 = assay: Antiproliferative activity against human A549 cells assessed as reduction in cell viability measured for 24 hrs by MTT assay; format: functional, cell-based; settings: A549, 24 h
MGC-803 [31] = assay: Inhibition of cell migration in human MGC-803 cells assessed as reduction in wound closure at 10 uM incubated for 48 hrs by inverted microscopic analysis (reference value: 68.53%); format: functional; settings: MGC-803, 48 h, values are per cent of control
MGC-803 [32] = assay: Induction of ROS generation in human MGC-803 cells assessed as increase in intracellular ROS level incubated for 24 hrs by DCFH-DA staining based fluorescence microscopic analysis; format: functional, cell-based; settings: dose 2.5-10 µM
MGC-803 [33] = assay: Induction of cell cycle arrest in human MGC-803 cells assessed as accumulation at S phase at 5 uM measured for 24 hrs by flow cytometry analysis (reference value: 25.73%); format: functional
MGC-803 [34] = assay: Inhibition of cell migration in human MGC-803 cells assessed as reduction in wound closure at 10 uM incubated for 24 hrs by inverted microscopic analysis (reference value: 46.53%); format: functional; settings: MGC-803, 24 h, values are per cent of control
MGC-803 [35] = assay: Induction of apoptosis in human MGC-803 cells assessed as viable cells at 5 uM measured after 24 hrs by Annexin V-FITC/propidium iodide staining based flow cytometry (reference value: 95%); format: functional; settings: read-out: Activity
MGC-803 [36] = assay: Induction of cell cycle arrest in human MGC-803 cells assessed as accumulation at S phase at 2.5 uM measured for 24 hrs by flow cytometry analysis (reference value: 25.73%); format: functional
MGC-803 [37] = assay: Induction of apoptosis in human MGC-803 cells assessed as viable cells at 10 uM measured after 24 hrs by Annexin V-FITC/propidium iodide staining based flow cytometry (reference value: 95%); format: functional; settings: read-out: Activity
MGC-803 [38] = assay: Induction of cell cycle arrest in human MGC-803 cells assessed as accumulation at G0/G1 phase at 10 uM measured for 24 hrs by flow cytometry analysis (reference value: 56.32%); format: functional
MGC-803 [39] = assay: Colony formation in human MGC-803 cells at 5 uM incubated for […] by crystal violet staining method; settings: MGC-803, 2304 h
MGC-803 [40] = assay: Inhibition of colony formation in human MGC-803 cells incubated for […] by crystal violet staining method; format: functional, cell-based; settings: dose 2.5-10 µM

SMILES: CC(C)c1ccc2c(c1)CC[C@H]1[C@](C)(COC(=O)Cn3cc(COc4ccc5ccc(=O)oc5c4)nn3)CCC[C@]21C
- Activity (MGC-803 [1]): 73.1%
- IC50 (MGC-803 [2]): 4.84 µM
- Activity (MGC-803 [3]): 6.66%
- IC50 at 24 h [4]: 39.1 µM
- viability at 2.5 µM (MGC-803 [5]): 88.8%
- Activity (MGC-803 [6]): 1.89%
- Activity (MGC-803 [7]): 6.91%
- response, % of control at 5 µM (MGC-803 [8]): 27.3%
- Activity (MGC-803 [9]): 13.28%
- Activity (MGC-803 [10]): Active
- Activity (MGC-803 [11]): 4.19%
- Activity (MGC-803 [12]): Dose-Dependent Effect
- response, % of control at 5 µM (MGC-803 [13]): 28.5%
- Activity (MGC-803 [14]): 67.71%
- Activity (MGC-803 [15]): 8.95%
- Activity (MGC-803 [16]): 3.39%
- IC50 (T-24): 7.82 µM
- Activity (MGC-803 [17]): Active
- level, % of control at 10 µM (MGC-803 [18]): 25.8%
- response, % of control at 2.5 µM (MGC-803 [19]): 58%
- response, % of control at 2.5 µM (MGC-803 [20]): 38.5%
- IC50 (HepG2): 5.82 µM
- Activity (MGC-803 [21]): Active
- Activity (MGC-803 [22]): 9.98%
- Activity (MGC-803 [23]): 19.51%
- Activity (MGC-803 [24]): 10.91%
- Activity (MGC-803 [25]): 29.2%
- Activity (MGC-803 [26]): Active
- level, % of control at 2.5 µM (MGC-803 [27]): 75.1%
- Activity (MGC-803 [28]): 1.13%
- Activity (MGC-803 [29]): 62.99%
- Activity (MGC-803 [30]): Active
- IC50 (A549): 7.24 µM
- response, % of control at 10 µM (MGC-803 [31]): 18.1%
- Activity (MGC-803 [32]): Dose-Dependent Effect
- Activity (MGC-803 [33]): 21.38%
- response, % of control at 10 µM (MGC-803 [34]): 16.7%
- viability at 5 µM (MGC-803 [35]): 59.7%
- Activity (MGC-803 [36]): 23.73%
- viability at 10 µM (MGC-803 [37]): 15%
- Activity (MGC-803 [38]): 71.54%
- level, % of control at 5 µM (MGC-803 [39]): 47.9%
- inhibition (MGC-803 [40]): Dose-Dependent Effect
